Measured values as given in patent publication US20170224647A1, “NEW MDR1 INHIBITORS FOR OVERCOMING MULTIDRUG RESISTANCE” (UNIVERSITA' DEGLI STUDI DI PARMA, priority 2014, published 2017).

How the values were obtained:
MDR1 [1] = molecular target: T1, MDR1 (Homo sapiens, UniProt P08183); experiment: MDR1-mediated accumulation of fluorescent calcein in A549 cells; format: cell-based; conditions: A549 human lung adenocarcinoma cells; FIG. 3A
T1 construct: lung squamous-cell carcinoma (SKMES) expressing high levels of MDR1 on the plasma membrane; endogenous in cells; host or cells: SKMES (lung squamous-cell carcinoma)
Description: (§1) The lung carcinoma cell lines A549 and SKMES are grown in RPMI, supplemented with 10% fetal calf serum (FCS), 2 mM glutamine (Gln), and antibiotics (Penicillin 100 UI/ml and Streptomycin 100 μg/ml). Cells are kept in a thermostat at a temperature of 37° C., in air saturated with water vapor, enriched with 5% CO2.
(§2) Once the growth medium has been removed from the cells, a PBS washing at 37° C. is carried out, and RPMI without phenol red containing antibiotics is added, 5% FCS, 10 mM HEPES and 2mM Glutamine in the presence/absence of Calcein AM or 1 μM Hoechst and possible inhibitors are added. At the end of the loading, two washings with cold PBS are carried out, RPMI without Calcein AM or Hoechst is added, and samples are read by using the fluorescence plate reader (Enspire, Perkin Elmer; A of excitation: 360 nm; λ of emission: 465 nm). The value provided by the instrument is proportional to the intracellular concentration of Calcein AM and Hoechst. Finally, the cells are treated with 5% TCA, followed by 0.5 N NaOH to solubilize the cells. The protein content is determined by the Bradford method, and it is used for normalizing the uptake values of Calcein AM and Hoechst. The accumulation of Calcein or Hoechst is therefore expressed as the fluorescence intensity/mg proteins.

MDR1 [2] = molecular target: T1, MDR1; experiment: MDR1-mediated accumulation of fluorescent calcein in SKMES cells; format: cell-based; conditions: SKMES lung squamous-cell carcinoma cells; compared with PSC833; FIG. 3B
Description: as §1, §2

ABCG2 = molecular target: T2, ABCG2 (Homo sapiens, UniProt Q9UNQ0); experiment: ABCG2-mediated outflow of fluorescent Hoechst in H460 cells; format: cell-based; conditions: H460 cells over-expressing ABCG2; FIG. 4
T2 construct: a model of human lung adenocarcinoma (H460) over-expressing such receptor; endogenous in cells; host or cells: H460 (human lung carcinoma)
T2 sequence (Q9UNQ0 1-655): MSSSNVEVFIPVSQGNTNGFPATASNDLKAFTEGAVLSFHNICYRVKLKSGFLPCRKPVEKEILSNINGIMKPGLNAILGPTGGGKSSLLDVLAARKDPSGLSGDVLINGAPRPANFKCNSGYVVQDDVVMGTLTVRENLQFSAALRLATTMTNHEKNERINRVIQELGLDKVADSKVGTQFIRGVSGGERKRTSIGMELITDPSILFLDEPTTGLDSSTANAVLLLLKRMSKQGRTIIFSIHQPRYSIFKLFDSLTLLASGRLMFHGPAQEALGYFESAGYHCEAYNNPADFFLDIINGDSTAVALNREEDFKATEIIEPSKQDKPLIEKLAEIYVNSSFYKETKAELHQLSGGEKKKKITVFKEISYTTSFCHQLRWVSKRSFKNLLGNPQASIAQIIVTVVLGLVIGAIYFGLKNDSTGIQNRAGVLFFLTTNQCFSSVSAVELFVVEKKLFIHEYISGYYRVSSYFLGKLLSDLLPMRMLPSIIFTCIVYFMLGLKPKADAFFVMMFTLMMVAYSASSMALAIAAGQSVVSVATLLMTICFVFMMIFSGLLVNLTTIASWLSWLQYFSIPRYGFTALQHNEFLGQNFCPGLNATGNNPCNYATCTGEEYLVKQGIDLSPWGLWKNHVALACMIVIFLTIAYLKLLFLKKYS
Description: as §2

ABCA1 = molecular target: T3, ABCA1 (Mus musculus, UniProt P41233); experiment: ABCA1-mediated cholesterol outflow; format: cell-based; conditions: murine peritoneal macrophages, apolipoprotein A-I acceptor; FIG. 5B
T3 construct: the expression of the ABCA1 protein on the plasma membrane was stimulated by adding 22-OH cholesterol and 9-cis-retinoic acid; endogenous in cells; host or cells: murine peritoneal macrophages (primary)
Description: Murine peritoneal macrophages were seeded in da 24-well plates, each containing 10^6 cell/well in 10% RPMI of fetal bovine serum (FBS). After 24 h, following a PBS washing, the cells were incubated with radiolabeled medium containing [3H]-cholesterol at a concentration of 2 μCi/ml in a medium supplemented with FBS 2% in the presence of the inhibitor of the esterifying enzyme ACAT (SAH58035) at a final concentration of 2 μg/ml in order to maintain all the intracellular cholesterol in the free form and the ABCA1 substrate in the outflow process. At the completion of the 24-hour staining, after the PBS washing, the cells were incubated with an equilibration medium composed of RPMI, 0.2% albumin, and the ACAT inhibitor. […] The filtered medium was collected and transferred into a vial, together with the scintillation liquid for the subsequent reading at the β-counter for the measurement of the radioactivity present in the cultural medium, which is an index of the free cholesterol excreted by the cells. The outflow percentage is calculated on the total radioactivity which is present in the cell by the following formula: % outflow=(average cpm/total cpm of the monolayer)×100. Each experimental condition was carried out in triplicates, and data was expressed as mean±standard deviation.

ABCG1 = molecular target: T4, ABCG1 (Homo sapiens, UniProt P45844); experiment: ABCG1-mediated cholesterol outflow; format: cell-based, hamster; conditions: CHO-L3 over-expressing ABCG1 vs CHO-K1, HDL acceptor; FIG. 5A
T4 construct: expressed in transfected cells; host or cells: CHO-L3 (derived from hamster ovary CHO-K1, which serves as control)
Description: In order to assess the ABCG1-mediated outflow, control hamster ovary cells CHO-K1 and CHO-L3 over-expressing the ABCG1 protein in Ham's medium F12 with 10% FBS were seeded in parallel in sterile 24-well plates. After 24 h, both cell lines were labeled with 10% FBS medium containing 1 μCi/ml [3H]-cholesterol. At the end of the labelling period (24 h), both cell lines were washed with PBS and equilibrated during 90 minutes with medium supplemented with 0.2% albumin. At the end of the equilibration, the cells were treated in the absence or presence of our compound AIF1 during 2 hours, and incubated for the next 6 hours e with the cholesterol acceptors, HDLs, at a concentration of 12.5 μg/ml. The quantification of the tritiated cholesterol secreted by the cells in the medium was determined as described in the previous paragraph. In particular, the contribution of the ABCG1 transporter to the cholesterol outflow was calculated as the difference between the outflow percentages obtained from the cell line CHO-L3 over-expressing ABCG1 and those obtained from the control cell line CHO-K1. Each experimental condition was carried out in triplicates, and data was expressed as mean±standard deviation.

SKMES cells = experiment: Intracellular doxorubicin by confocal microscope; format: cell-based, human
Description: SKMES cells were seeded on cover glasses and incubated with culture medium in a thermostat for 24 h. […]
Images were taken by using a confocal microscope (LSM 510 Meta scan integrated with a reversed microscope Carl Zeiss, Jena Germany), with a 43×/1.30 oil immersion lens.
Fluorescence of doxorubicin was excited with a 488 nm argon laser and its emission was collected by a 530 nm filter. During the analysis of the various samples, the confocal settings (excitation, laser power, detection range, and pinhole size) were kept unaltered.

tumoral cell = experiment: Intracellular concentration of doxorubicin by LC-MS/MS; format: cell-based; conditions: after AIF1 treatment compared to untreated cells; FIG. 8
Description: The intracellular content of Doxorubicin and AIF-1 may be determined by liquid chromatography-tandem mass spectrometry (LC-MS/MS) of samples extracted with absolute ethanol. In particular, after the treatment with the drugs, the culture medium is removed, and 3 washings of the cell monolayer with PBS are carried out. Then, the cells are incubated for ten minutes at room temperature with absolute ethanol, which is then analyzed by a LC-MS/MS technique. Values were normalized for the protein content assessed after solubilization of the cell monolayer with 0.5N NaOH and are expressed as pmoles/mg proteins.
Doxorubicin and AIF-1 concentrations in the samples of cell extracts were determined by liquid chromatography-tandem mass spectrometry (LCMS/MS) by using a mass spectrometer.
The samples extracted in ethanol were filtered on a 0.2 μm cellulose filter and analyzed by liquid chromatography-tandem mass spectrometry (LC-MS/MS). […]
The full scan mass spectra were recorded in the 250-900 m/z range, using a 0.1 stepsize and 1 s scan time in the positive ion mode for doxorubicin and atenolol (ATN, used as the internal standard) and in the negative ion mode for AIF1. […]

T1 sequence (P08183 whole entry): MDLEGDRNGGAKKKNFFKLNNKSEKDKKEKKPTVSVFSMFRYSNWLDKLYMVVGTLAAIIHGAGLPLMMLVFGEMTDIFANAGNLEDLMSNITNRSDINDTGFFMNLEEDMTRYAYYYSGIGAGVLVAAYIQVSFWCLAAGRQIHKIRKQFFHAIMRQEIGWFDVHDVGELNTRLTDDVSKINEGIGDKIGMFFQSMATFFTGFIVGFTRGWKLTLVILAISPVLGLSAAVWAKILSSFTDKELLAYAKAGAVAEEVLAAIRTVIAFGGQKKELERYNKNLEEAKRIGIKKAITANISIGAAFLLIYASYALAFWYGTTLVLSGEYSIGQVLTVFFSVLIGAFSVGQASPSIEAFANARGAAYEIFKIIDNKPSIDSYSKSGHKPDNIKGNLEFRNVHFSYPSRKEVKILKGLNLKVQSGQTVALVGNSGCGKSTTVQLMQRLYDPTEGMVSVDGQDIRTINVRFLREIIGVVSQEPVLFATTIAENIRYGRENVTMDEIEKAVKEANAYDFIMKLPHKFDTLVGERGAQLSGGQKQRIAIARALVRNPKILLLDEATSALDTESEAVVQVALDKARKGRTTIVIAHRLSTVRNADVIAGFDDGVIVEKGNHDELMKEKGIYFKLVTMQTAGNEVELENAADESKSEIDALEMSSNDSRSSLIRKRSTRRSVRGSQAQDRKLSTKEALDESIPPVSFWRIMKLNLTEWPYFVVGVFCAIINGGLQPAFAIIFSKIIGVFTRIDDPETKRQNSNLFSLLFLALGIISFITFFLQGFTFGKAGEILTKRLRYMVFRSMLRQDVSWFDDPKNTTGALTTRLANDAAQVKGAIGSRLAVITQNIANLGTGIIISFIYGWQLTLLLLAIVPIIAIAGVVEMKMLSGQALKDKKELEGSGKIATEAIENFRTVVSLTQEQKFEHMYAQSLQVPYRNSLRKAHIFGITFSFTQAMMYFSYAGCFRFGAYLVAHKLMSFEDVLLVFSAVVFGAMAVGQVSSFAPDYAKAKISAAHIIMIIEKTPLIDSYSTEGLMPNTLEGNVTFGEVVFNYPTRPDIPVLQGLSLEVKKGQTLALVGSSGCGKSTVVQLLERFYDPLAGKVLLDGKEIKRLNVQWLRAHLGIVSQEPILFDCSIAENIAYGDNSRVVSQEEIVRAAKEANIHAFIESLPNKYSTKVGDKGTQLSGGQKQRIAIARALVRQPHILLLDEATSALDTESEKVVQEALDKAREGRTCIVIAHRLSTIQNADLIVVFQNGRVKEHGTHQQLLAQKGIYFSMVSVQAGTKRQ
T3 sequence (P41233 whole entry): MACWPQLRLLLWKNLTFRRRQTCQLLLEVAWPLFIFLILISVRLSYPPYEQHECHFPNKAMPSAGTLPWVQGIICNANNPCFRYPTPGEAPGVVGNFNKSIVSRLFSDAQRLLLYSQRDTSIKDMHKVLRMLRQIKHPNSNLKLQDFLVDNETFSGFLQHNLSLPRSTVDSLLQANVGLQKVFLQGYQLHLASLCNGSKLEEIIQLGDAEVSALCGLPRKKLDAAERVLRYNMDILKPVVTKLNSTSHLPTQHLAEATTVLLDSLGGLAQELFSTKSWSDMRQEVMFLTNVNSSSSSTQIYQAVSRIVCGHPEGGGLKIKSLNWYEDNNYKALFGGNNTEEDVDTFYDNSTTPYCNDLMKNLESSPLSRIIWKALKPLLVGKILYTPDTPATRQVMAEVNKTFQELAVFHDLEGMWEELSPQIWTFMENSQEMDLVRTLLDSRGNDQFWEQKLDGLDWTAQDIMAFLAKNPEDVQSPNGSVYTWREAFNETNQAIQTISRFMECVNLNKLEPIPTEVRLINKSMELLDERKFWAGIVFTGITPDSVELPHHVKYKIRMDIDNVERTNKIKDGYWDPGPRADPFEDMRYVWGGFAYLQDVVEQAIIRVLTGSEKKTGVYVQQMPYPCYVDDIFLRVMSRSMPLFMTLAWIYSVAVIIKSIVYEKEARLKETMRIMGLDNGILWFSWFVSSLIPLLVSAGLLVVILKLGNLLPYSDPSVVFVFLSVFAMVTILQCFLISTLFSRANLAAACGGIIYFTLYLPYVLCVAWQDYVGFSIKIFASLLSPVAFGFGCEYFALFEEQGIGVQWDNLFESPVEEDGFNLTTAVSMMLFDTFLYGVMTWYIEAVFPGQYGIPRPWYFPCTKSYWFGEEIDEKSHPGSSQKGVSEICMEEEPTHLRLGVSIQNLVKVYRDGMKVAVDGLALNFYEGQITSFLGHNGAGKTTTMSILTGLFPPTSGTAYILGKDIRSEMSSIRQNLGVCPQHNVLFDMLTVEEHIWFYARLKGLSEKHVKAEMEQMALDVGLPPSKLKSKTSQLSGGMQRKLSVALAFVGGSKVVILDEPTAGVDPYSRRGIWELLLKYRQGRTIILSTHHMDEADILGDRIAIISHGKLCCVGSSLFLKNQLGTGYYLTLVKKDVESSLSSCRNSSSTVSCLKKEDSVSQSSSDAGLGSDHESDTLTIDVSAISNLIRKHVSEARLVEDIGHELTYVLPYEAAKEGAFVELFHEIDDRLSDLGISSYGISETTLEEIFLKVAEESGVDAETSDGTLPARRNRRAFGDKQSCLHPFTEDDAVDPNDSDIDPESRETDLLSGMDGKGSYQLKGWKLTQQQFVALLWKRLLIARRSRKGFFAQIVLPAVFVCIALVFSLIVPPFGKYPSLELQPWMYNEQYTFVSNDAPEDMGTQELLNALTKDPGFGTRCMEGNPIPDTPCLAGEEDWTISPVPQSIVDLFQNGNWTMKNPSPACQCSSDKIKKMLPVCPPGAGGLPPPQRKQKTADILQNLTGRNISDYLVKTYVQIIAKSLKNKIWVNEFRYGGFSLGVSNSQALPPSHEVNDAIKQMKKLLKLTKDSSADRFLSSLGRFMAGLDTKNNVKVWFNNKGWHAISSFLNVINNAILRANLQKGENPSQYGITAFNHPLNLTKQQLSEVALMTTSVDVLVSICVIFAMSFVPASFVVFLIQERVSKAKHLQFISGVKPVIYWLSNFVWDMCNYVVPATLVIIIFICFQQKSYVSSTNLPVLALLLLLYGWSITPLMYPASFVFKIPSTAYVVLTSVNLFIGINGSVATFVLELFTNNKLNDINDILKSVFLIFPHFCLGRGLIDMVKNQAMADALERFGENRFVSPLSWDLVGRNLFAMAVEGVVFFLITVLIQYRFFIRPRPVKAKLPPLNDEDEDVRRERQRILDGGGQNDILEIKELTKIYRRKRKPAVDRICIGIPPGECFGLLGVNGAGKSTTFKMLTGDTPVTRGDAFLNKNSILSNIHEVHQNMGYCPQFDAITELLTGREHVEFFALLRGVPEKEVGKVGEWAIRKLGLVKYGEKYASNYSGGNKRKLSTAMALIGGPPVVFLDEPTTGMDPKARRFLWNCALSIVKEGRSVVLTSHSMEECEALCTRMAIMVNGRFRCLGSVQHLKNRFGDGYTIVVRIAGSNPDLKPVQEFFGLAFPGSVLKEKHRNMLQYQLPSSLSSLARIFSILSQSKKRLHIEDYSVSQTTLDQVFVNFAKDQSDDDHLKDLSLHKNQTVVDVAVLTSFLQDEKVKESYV

- effect on MDR1-mediated accumulation of fluorescent calcein (MDR1 [2]): highly effective
- accumulation/extrusion of fluorescent Hoechst (ABCG2 substrate) (ABCG2): did not show any effect
- outflow of cholesterol mediated by ABCA1 (ABCA1): does not show any effect
- outflow of cholesterol mediated by ABCG1 (ABCG1): does not show any effect
SMILES: CC(C)(Sc1cc(C(C)(C)C)c(OC(=O)CCC(=O)O)c(C(C)(C)C)c1)Sc1cc(C(C)(C)C)c(OC(=O)CCC(=O)O)c(C(C)(C)C)c1 [AIF1]
- intracellular concentration of calcein (MDR1-mediated cell outflow of fluorescent calcein) (MDR1 [1]): significantly and dose-dependent increases
- intracellular fluorescent signal of doxorubicin (SKMES cells; after 60 and 90 minutes of doxorubicin in the presence of AIF1, FIGS. 7B, 7C): remains almost unaltered
- intracellular fluorescent signal of doxorubicin (SKMES cells; after 30 minutes doxorubicin, vs cells not treated with the compound, FIG. 7A): considerably increased
- concentration of intracellular doxorubicin (tumoral cell): significantly higher
